According to US20090123507A1, “Metal Oxide Nanoparticles Coated With Specific N-Acylaminomethylene Phosphonates” (priority 2005, published 2009):

Assays:
S. aureus (ATCC 6538) = assay: European Standard Assay method EN 1040, antimicrobial bioassay; format: cell-based; conditions: logarithmic scale (5 = factor of 100000); for Bioassay data S. aureus 5 min: 5 min incubation; for Bioassay data S. aureus 30 min: 30 min incubation
Method: (§1) The titanium dioxide particles coated with the appropriate phosphonates were subsequently assayed according the European Standard Assay method EN 1040 against two representative microbes:
(§2) S. aureaus (ATCC 6538) and E. coli (ATCC 10536).
(§3) Both microbes were incubated with the coated nanoparticles together with their corresponding free phosphonates within the same apparent concentrations for 5 and 30 minutes, respectively.
(§4) The data are given in a logarithmic scale which means that the number 5 indicates an increase of activity by a factor of 100000.

E. coli (ATCC 10536) = assay: as above; format: cell-based; conditions: logarithmic scale (5 = factor of 100000); for Bioassay data E. coli 5 min: 5 min incubation; for Bioassay data E. coli 30 min: 30 min incubation
Method: as §1, §2, §3, §4

CCOP(=O)(CCC#N)OCC [Compound A]
<1: Bioassay data S. aureus 5 min (S. aureus (ATCC 6538)) | Bioassay data S. aureus 30 min (S. aureus (ATCC 6538)) | Bioassay data E. coli 5 min (E. coli (ATCC 10536)) | Bioassay data E. coli 30 min (E. coli (ATCC 10536))

CCCCCCCCCCCCCCCCCC(=O)NCCP(=O)(OCC)OCC [Compound J]
<1: Bioassay data S. aureus 5 min (S. aureus (ATCC 6538)) | Bioassay data S. aureus 30 min (S. aureus (ATCC 6538)) | Bioassay data E. coli 5 min (E. coli (ATCC 10536)) | Bioassay data E. coli 30 min (E. coli (ATCC 10536))

CCCCCCCC/C=C/CCCCCCCC(=O)NCCP(=O)(OCC)OCC [Compound K]
<1: Bioassay data S. aureus 5 min (S. aureus (ATCC 6538)) | Bioassay data S. aureus 30 min (S. aureus (ATCC 6538)) | Bioassay data E. coli 5 min (E. coli (ATCC 10536)) | Bioassay data E. coli 30 min (E. coli (ATCC 10536))

CCOP(=O)(CCNC(=O)CCCCCN=[N+]=[N-])OCC [Compound L]
<1: Bioassay data S. aureus 5 min (S. aureus (ATCC 6538)) | Bioassay data S. aureus 30 min (S. aureus (ATCC 6538)) | Bioassay data E. coli 5 min (E. coli (ATCC 10536)) | Bioassay data E. coli 30 min (E. coli (ATCC 10536))

CCOP(=O)(CCNC(=O)CCC(=O)O)OCC [Compound M]
<1: Bioassay data S. aureus 5 min (S. aureus (ATCC 6538)) | Bioassay data S. aureus 30 min (S. aureus (ATCC 6538)) | Bioassay data E. coli 5 min (E. coli (ATCC 10536)) | Bioassay data E. coli 30 min (E. coli (ATCC 10536))

CCOP(=O)(CCCCNC(=O)OCc1ccccc1)OCC [Compound N]
<1: Bioassay data S. aureus 5 min (S. aureus (ATCC 6538)) | Bioassay data S. aureus 30 min (S. aureus (ATCC 6538)) | Bioassay data E. coli 5 min (E. coli (ATCC 10536)) | Bioassay data E. coli 30 min (E. coli (ATCC 10536))
